Reference: patent US20250304574A1, “3,4,6,7-TETRAHYDRO-2,7-NAPHTHYRIDINE-2(1H)-CARBOXAMIDE DERIVATIVES AS GPR65 INHIBITORS FOR THE TREATMENT OF CANCER AND AUTOIMMUNE DISEASES” (Pathios Therapeutics Limited, priority 2022, published 2025)

What follows are molecules tested against human recombinant GPR65 (Homo sapiens, UniProt Q8IYL9) (assay: Human GPR65 cAMP HTRF antagonist assay). Conditions: 1321N1 cells stably expressing human recombinant GPR65, assay pH 7.2, read-out: hGPR65 IC50.
Format: cell-based
Method: Human GPR65 Cyclic Adenosine Monophosphate (cAMP) Homogeneous Time Resolved Fluorescence (HTRF) Antagonist Assay Procedure
IC50 data was obtained by the following procedure:
1321N1 human astrocytoma cells stably expressing human recombinant GPR65 (1321N1-hrGPR65 cells, EuroscreenFast) were cultured according to the vendor's instructions.
Compounds were tested for their ability to antagonise GPR65, through measuring the concentration of cytoplasmic cAMP following treatment of the cells at a pH of 7.2 to activate GPR65 signalling and addition of the compound to be tested. The extent to which the expected rise in cAMP concentration upon GPR65 activation was suppressed by the added compound is indicative of its potency. The assay was carried out according to EuroscreenFast assay Methodology as follows.
On the day of the assay, test compounds were added to 384-well, low volume, white microtiter plates by acoustic dispensing. KRH buffer (5 mM KCl, 1.25 mM MgSO4, 124 mM NaCl, 25 mM HEPES, 13.3 mM Glucose, 1.25 mM KH2PO4 and 1.45 mM CaCl2) was adjusted to pH 6.5, pH 7.6 and pH 8.4 by adding NaOH. 1321N1-hGPR65 cells were rapidly thawed and diluted in KRH, pH 7.6 prior to centrifugation at 300×g for 5 min and resuspension in assay buffer (KRH, pH 7.6, supplemented with 1 mM 3-isobutyl-1-methylxanthine (IBMX) and 200 μM ethylenediaminetetraacetic acid (EDTA)). Cells were added to assay plates at a density of 2,000 cells per well in a volume of 5 μl. Assay plates were briefly centrifuged at 100×g and then incubated at room temperature for 30 min. Cells were stimulated by the addition of 5 μL KRH, pH 6.5, to achieve an assay pH of 7.2, while control wells received 5 μl KRH, pH 8.4 to achieve an assay pH of 7.9. Assay plates were briefly centrifuged at 100×g and then incubated at room temperature for 30 min.
Accumulation of cAMP was detected by cAMP HTRF kit (Cisbio). d2-labeled cAMP and cryptate-labeled anti-cAMP antibody in Lysis and Detection Buffer (Cisbio) were added to assay plates, and the plates were incubated at room temperature for 1 h. HTRF measurements were performed using a Pherastar FSX instrument. Acceptor and donor emission signals were measured at 665 nm and 620 nm, respectively, and HTRF ratios were calculated as signal665 nm/signal620nm×10^4. Data were normalised to high and low control values and fitted with 4-parameter logistic regression to determine hGPR65 IC50 values for the test compounds, which are shown in Table 1.

Sequence of human recombinant GPR65 (Q8IYL9 whole entry): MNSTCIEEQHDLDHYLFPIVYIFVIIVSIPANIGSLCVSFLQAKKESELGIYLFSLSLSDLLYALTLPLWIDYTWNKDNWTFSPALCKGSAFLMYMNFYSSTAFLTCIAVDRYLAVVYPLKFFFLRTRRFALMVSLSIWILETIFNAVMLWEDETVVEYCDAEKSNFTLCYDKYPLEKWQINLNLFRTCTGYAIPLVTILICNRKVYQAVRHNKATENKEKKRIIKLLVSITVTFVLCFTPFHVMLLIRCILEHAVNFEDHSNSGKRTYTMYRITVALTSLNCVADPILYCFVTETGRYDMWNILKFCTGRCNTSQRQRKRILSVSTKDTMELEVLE

Compound	IC50
N#Cc1ccc2c(c1)CCN(C(=O)Nc1cc(C(F)(F)F)on1)C2 [Compound 6, 6-Cyano-N-(5-(trifluoromethyl)isoxazol-3-yl)-3,4-dihydroisoquinoline-2(1H)-carboxamide]	500 to 5000 nM
O=C(Nc1cc(Cl)c(Cl)cn1)N1CCc2cc(F)ncc2C1 [Compound 12, N-(4,5-Dichloropyridin-2-yl)-6-fluoro-3,4-dihydro-2,7-naphthyridine-2(1H)-carboxamide]	500 to 5000 nM
O=C(Nc1cc(Cl)c(C(F)(F)F)cn1)N1CCc2cc(F)ncc2C1 [Compound 13, N-(4-Chloro-5-(trifluoromethyl)pyridin-2-yl)-6-fluoro-3,4-dihydro-2,7-naphthyridine-2(1H)-carboxamide]	500 to 5000 nM
O=C(Nc1nnc(C(F)(F)F)s1)N1CCc2cc(=O)[nH]cc2C1 [Compound 7, 6-Oxo-N-(5-(trifluoromethyl)-1,3,4-thiadiazol-2-yl)-3,4,6,7-tetrahydro-2,7-naphthyridine-2(1H)-carboxamide]	500 to 5000 nM
O=C(Nc1cc(Cl)c(C(F)(F)F)cn1)N1CCc2cc(=O)[nH]cc2C1 [Compound 5, N-(4-chloro-5-(trifluoromethyl)pyridin-2-yl)-6-oxo-3,4,6,7-tetrahydro-2,7-naphthyridine-2(1H)-carboxamide]	500 to 5000 nM
CS(=O)(=O)c1nnc2c(n1)CCN(C(=O)Nc1cc(Cl)c(C(F)(F)F)cc1F)C2 [Compound 18, N-(5-chloro-2-fluoro-4-(trifluoromethyl)phenyl)-3-(methylsulfonyl)-5,8-dihydropyrido[4,3-e][1,2,4]triazine-7(6H)-carboxamide]	500 to 5000 nM
C=C1CN(C(=O)Nc2cc(Cl)c(C(F)(F)F)cc2F)Cc2cnc(F)cc21 [Compound 22, N-(5-Chloro-2-fluoro-4-(trifluoromethyl)phenyl)-6-fluoro-4-methylene-3,4-dihydro-2,7-naphthyridine-2(1H)-carboxamide]	500 to 5000 nM
O=C(Nc1cc(Cl)c(Cl)cn1)N1CCc2cc(=O)[nH]cc2C1 [Compound 8, N-(4,5-Dichloropyridin-2-yl)-6-oxo-3,4,6,7-tetrahydro-2,7-naphthyridine-2(1H)-carboxamide]	500 to 5000 nM
O=C1NN=C2CN(C(=O)Nc3cc(Cl)c(C(F)(F)F)cc3F)CC=C2N1 [Compound 14, N-(5-Chloro-2-fluoro-4-(trifluoromethyl)phenyl)-3-oxo-2,4,6,8-tetrahydropyrido[4,3-e][1,2,4]triazine-7(3H)-carboxamide]	500 to 5000 nM
CC1CN(C(=O)Nc2cc(Cl)c(C(F)(F)F)cc2F)Cc2cnc(F)cc21 (centres unmarked) [Compound 20, N-(5-Chloro-2-fluoro-4-(trifluoromethyl)phenyl)-6-fluoro-4-methyl-3,4-dihydro-2,7-naphthyridine-2(1H)-carboxamide]	500 to 5000 nM
O=C(Nc1cc(Cl)c(C(F)(F)F)cc1F)N1CCc2cc(=O)[nH]cc2C1 [Compound 2, N-(5-Chloro-2-fluoro-4-(trifluoromethyl)phenyl)-6-oxo-3,4,6,7-tetrahydro-2,7-naphthyridine-2(1H)-carboxamide]	< 500 nM
O=C(Nc1cc(Cl)c(C(F)(F)F)cc1F)N1CCc2c(ccnc2F)C1 [Compound 17, N-(5-Chloro-2-fluoro-4-(trifluoromethyl)phenyl)-5-fluoro-3,4-dihydro-2,6-naphthyridine-2(1H)-carboxamide]	< 500 nM
O=C(Nc1nnc(C(F)(F)F)s1)N1CCc2cc(Cl)ccc2C1 [Compound 10, 6-Chloro-N-(5-(trifluoromethyl)-1,3,4-thiadiazol-2-yl)-3,4-dihydroisoquinoline-2(1H)-carboxamide]	< 500 nM
C[C@H]1CN(C(=O)Nc2cc(Cl)c(C(F)(F)F)cc2F)Cc2ccnc(F)c21 (single isomer, unassigned; isomer 2) [Compound 29, N-(5-chloro-2-fluoro-4-(trifluoromethyl)phenyl)-5-fluoro-4-methyl-3,4-dihydro-2,6-naphthyridine-2(1H)-carboxamide isomer 2]	< 500 nM
O=C(Nc1cc(Cl)c(C(F)(F)F)cc1F)N1Cc2ccnc(F)c2C(F)C1 (centres unmarked) [Compound 27, N-(5-chloro-2-fluoro-4-(trifluoromethyl)phenyl)-4,5-difluoro-3,4-dihydro-2,6-naphthyridine-2(1H)-carboxamide]	< 500 nM
O=C(Nc1cc(Cl)c(C(F)(F)F)cc1F)N1CCc2cc(F)ccc2C1 [Compound 11, N-(5-Chloro-2-fluoro-4-(trifluoromethyl)phenyl)-6-fluoro-3,4-dihydroisoquinoline-2(1H)-carboxamide]	< 500 nM
C[C@@H]1CN(C(=O)Nc2cc(Cl)c(C(F)(F)F)cc2F)Cc2c[nH]c(=O)cc21 (single isomer, unassigned; isomer 1) [Compound 25, N-(5-chloro-2-fluoro-4-(trifluoromethyl)phenyl)-4-methyl-6-oxo-3,4,6,7-tetrahydro-2,7-naphthyridine-2(1H)-carboxamide isomer 1]	< 500 nM
O=C(Nc1cc(Cl)c(Br)cc1F)N1CCc2cc(=O)[nH]cc2C1 [Compound 3, N-(4-Bromo-5-chloro-2-fluorophenyl)-6-oxo-3,4,6,7-tetrahydro-2,7-naphthyridine-2(1H)-carboxamide]	< 500 nM

Further lines, results first:

IC50	Compound
< 500 nM	O=C(Nc1cc(C(F)(F)F)on1)N1CCc2cc(=O)[nH]cc2C1 [Compound 4, 6-Oxo-N-(5-(trifluoromethyl)isoxazol-3-yl)-3,4,6,7-tetrahydro-2,7-naphthyridine-2(1H)-carboxamide]
< 500 nM	CC1CN(C(=O)Nc2cc(Cl)c(C(F)(F)F)cc2F)Cc2ccnc(F)c21 (centres unmarked) [Compound 23, N-(5-Chloro-2-fluoro-4-(trifluoromethyl)phenyl)-5-fluoro-4-methyl-3,4-dihydro-2,6-naphthyridine-2(1H)-carboxamide]
< 500 nM	O=C(Nc1nnc(C(F)(F)F)s1)N1CCc2cc(F)ccc2C1 [Compound 9, 6-Fluoro-N-(5-(trifluoromethyl)-1,3,4-thiadiazol-2-yl)-3,4-dihydroisoquinoline-2(1H)-carboxamide]
< 500 nM	O=C(Nc1cc(Br)c(C(F)(F)F)cc1F)N1CCc2cc(=O)[nH]cc2C1 [Compound 1, N-(5-bromo-2-fluoro-4-(trifluoromethyl)phenyl)-6-oxo-3,4,6,7-tetrahydro-2,7-naphthyridine-2(1H)-carboxamide]
< 500 nM	C[C@@H]1CN(C(=O)Nc2cc(Cl)c(C(F)(F)F)cc2F)Cc2ccnc(F)c21 (single isomer, unassigned; isomer 1) [Compound 28, N-(5-chloro-2-fluoro-4-(trifluoromethyl)phenyl)-5-fluoro-4-methyl-3,4-dihydro-2,6-naphthyridine-2(1H)-carboxamide isomer 1]
< 500 nM	CC1CN(C(=O)Nc2cc(Cl)c(C(F)(F)F)cc2F)Cc2c[nH]c(=O)cc21 (racemic) [Compound 21, (±)-N-(5-chloro-2-fluoro-4-(trifluoromethyl)phenyl)-4-methyl-6-oxo-3,4,6,7-tetrahydro-2,7-naphthyridine-2(1H)-carboxamide]
< 500 nM	O=C(Nc1cc(Cl)c(C(F)(F)F)cc1F)N1CCc2cc(=O)[nH]nc2C1 [Compound 15, N-(5-Chloro-2-fluoro-4-(trifluoromethyl)phenyl)-3-oxo-2,5,6,8-tetrahydropyrido[3,4-c]pyridazine-7(3H)-carboxamide]
< 500 nM	C=C1CN(C(=O)Nc2cc(Cl)c(C(F)(F)F)cc2F)Cc2ccnc(F)c21 [Compound 24, N-(5-Chloro-2-fluoro-4-(trifluoromethyl)phenyl)-5-fluoro-4-methylene-3,4-dihydro-2,6-naphthyridine-2(1H)-carboxamide]
< 500 nM	O=C(Nc1cc(Cl)c(C(F)(F)F)cn1)N1CCc2c(ccnc2F)C1 [Compound 16, N-(4-chloro-5-(trifluoromethyl)pyridin-2-yl)-5-fluoro-3,4-dihydro-2,6-naphthyridine-2(1H)-carboxamide]
< 500 nM	O=C(Nc1cc(Cl)c(Cl)cn1)N1CCc2c(ccnc2F)C1 [Compound 19, N-(4,5-Dichloropyridin-2-yl)-5-fluoro-3,4-dihydro-2,6-naphthyridine-2(1H)-carboxamide]
< 500 nM	C[C@H]1CN(C(=O)Nc2cc(Cl)c(C(F)(F)F)cc2F)Cc2c[nH]c(=O)cc21 (single isomer, unassigned; isomer 2) [Compound 26, N-(5-chloro-2-fluoro-4-(trifluoromethyl)phenyl)-4-methyl-6-oxo-3,4,6,7-tetrahydro-2,7-naphthyridine-2(1H)-carboxamide isomer 2]
